# Results taken from patent publication US5160526A, “Alkene stabilizers for 3-isothiazolone compounds” (priority 1991, dated 1992).
# Where two headings read alike, the source gives them in different places.
# Key:
# [1] = Stabilization of 5-Chloro and 2-Methyl mixture by norbornene in 2-propanol, 55° C oven; assay type: physicochemical
# Source text: This solution was distributed into 6 vials and varying amounts of norbornene added.
# [2] = for 2-Methyl (%) / 5-Chloro (%): 2-propanol + 2% water, 55° C
# Method: A solution of 5-chloro-2methyl-3-isothiazolone ("5-Chloro") and 2-methyl-3-isothiazolone ("2-Methyl") (3.11 g) was prepared in 2-propanol (12.1 g). This solution was distributed in 6 vials. Water (2%) and varying amounts of norbornene were then added. These were then put in a 55° C. oven and analyzed periodically.
# [3] = Stabilization of 5-Chloro and 2-Methyl mixture by norbornene in dipropylene glycol containing 0.5% water, 55° C oven; assay type: physicochemical; conditions: DPG (0.5% water)
# Method: To 19.9 g of dipropylene glycol was added 0.1 g of water. […] This solution was distributed into 6 vials and varying amounts of norbornene were added.
# [4] = assay type: physicochemical; conditions: DPG, 55° C
# Method: This solution was distributed into 6 vials (3 g each) and varying amounts of cyclohexene were added. The vials were then heated at 55° C. and analyzed periodically.
# [5] = assay type: physicochemical; conditions: 2-propanol, 55° C
# Method: Varying amounts of DHP were added and the vials put in a 55° C. oven. Active ingredient analysis was done periodically.
# [6] = assay type: physicochemical; conditions: kerosene/diethylene glycol butyl ether
# Method: In a formulation comprised of 3 parts by weight of a mixture of 5-chloro-2-methyl-3-isothiazolone and 2-methyl-3-isothiazolone in a 3:1 ratio, 94 parts by weight of a mixture of kerosene […] and diethylene glycol butyl ether (20 parts by weight), 3 parts by weight norbornene stabilizer was added. The control had no norbornene.
# Example 9 was repeated except using 1 part by weight norbornene. No loss of 5-chloro-2-methyl-3-isothiazolone was observed after eight weeks at 55° C.
# Example 9 was repeated except using 1-tetradecene as stabilizer resulting in 86% 5-chloro-2-methyl-3-isothiazolone remaining after four weeks at 55° C. and complete loss by eight weeks.
structure (smiles),measurement,setting,value
Cn1sc(Cl)cc1=O [5-chloro-2-methyl-3-isothiazolone],stabilization with norbornene (in words),[1],completely stabilized
same,2-Methyl (%) / 5-Chloro (%),"[2]; 0% norbornene, 0 days",12.2%
same,2-Methyl (%) / 5-Chloro (%),"[2]; 0% norbornene, 7 days",0.23%
same,2-Methyl (%) / 5-Chloro (%),"[2]; 1.2% norbornene, 0 days",16.7%
same,2-Methyl (%) / 5-Chloro (%),"[2]; 1.2% norbornene, 7 days",0.09%
same,2-Methyl (%) / 5-Chloro (%),"[2]; 2.3% norbornene, 0 days",16.5%
same,2-Methyl (%) / 5-Chloro (%),"[2]; 2.3% norbornene, 7 days",0.09%
same,2-Methyl (%) / 5-Chloro (%),"[2]; 4.2% norbornene, 0 days",16.2%
same,2-Methyl (%) / 5-Chloro (%),"[2]; 4.2% norbornene, 7 days",0.07%
same,2-Methyl (%) / 5-Chloro (%),"[2]; 8.1% norbornene, 0 days",15.7%
same,2-Methyl (%) / 5-Chloro (%),"[2]; 8.1% norbornene, 7 days",< 0.1%
same,2-Methyl (%) / 5-Chloro (%),"[2]; 14.1% norbornene, 0 days",14.7%
same,2-Methyl (%) / 5-Chloro (%),"[2]; 14.1% norbornene, 7 days",13.5%
same,2-Methyl (%) / 5-Chloro (%),"[2]; 14.1% norbornene, 21 days",< 0.1%
same,2-Methyl (%) / 5-Chloro (%),"[3]; 0% norbornene, 0 days",11.7%
same,2-Methyl (%) / 5-Chloro (%),"[3]; 0% norbornene, 14 days",0.0%
same,2-Methyl (%) / 5-Chloro (%),"[3]; 0% norbornene, 30 days",0%
same,2-Methyl (%) / 5-Chloro (%),"[3]; 1.6% norbornene, 0 days",11.7%
same,2-Methyl (%) / 5-Chloro (%),"[3]; 1.6% norbornene, 14 days",0%
same,2-Methyl (%) / 5-Chloro (%),"[3]; 3.2% norbornene, 0 days",11.5%
same,2-Methyl (%) / 5-Chloro (%),"[3]; 3.2% norbornene, 14 days",10.4%
same,2-Methyl (%) / 5-Chloro (%),"[3]; 3.2% norbornene, 30 days",0.1%
same,2-Methyl (%) / 5-Chloro (%),"[3]; 6.5% norbornene, 0 days",11.2%
same,2-Methyl (%) / 5-Chloro (%),"[3]; 6.5% norbornene, 14 days",10.8%
same,2-Methyl (%) / 5-Chloro (%),"[3]; 6.5% norbornene, 30 days",10.1%
same,2-Methyl (%) / 5-Chloro (%),"[3]; 9.0% norbornene, 0 days",11.0%
same,2-Methyl (%) / 5-Chloro (%),"[3]; 9.0% norbornene, 14 days",10.7%
same,2-Methyl (%) / 5-Chloro (%),"[3]; 9.0% norbornene, 30 days",10.4%
same,2-Methyl (%) / 5-Chloro (%),"[3]; 14.3% norbornene, 0 days",10.5%
same,2-Methyl (%) / 5-Chloro (%),"[3]; 14.3% norbornene, 14 days",10.2%
same,2-Methyl (%) / 5-Chloro (%),"[3]; 14.3% norbornene, 30 days",9.7%
same,2-Methyl (%) / 5-Chloro (%),"[4]; 0% cyclohexene, 0 days",11.4%
same,2-Methyl (%) / 5-Chloro (%),"[4]; 0% cyclohexene, 13 days",< 0.1%
same,2-Methyl (%) / 5-Chloro (%),"[4]; 3.2% cyclohexene, 0 days",10.1%
same,2-Methyl (%) / 5-Chloro (%),"[4]; 3.2% cyclohexene, 13 days",0.19%
same,2-Methyl (%) / 5-Chloro (%),"[4]; 6.8% cyclohexene, 0 days",10.9%
same,2-Methyl (%) / 5-Chloro (%),"[4]; 6.8% cyclohexene, 13 days",0.10%
same,2-Methyl (%) / 5-Chloro (%),"[4]; 9.1% cyclohexene, 0 days",10.6%
same,2-Methyl (%) / 5-Chloro (%),"[4]; 9.1% cyclohexene, 13 days",8.6%
same,2-Methyl (%) / 5-Chloro (%),"[4]; 9.1% cyclohexene, 30 days",0.0%
same,2-Methyl (%) / 5-Chloro (%),"[4]; 11.8% cyclohexene, 0 days",10.5%
same,2-Methyl (%) / 5-Chloro (%),"[4]; 11.8% cyclohexene, 13 days",7.9%
same,2-Methyl (%) / 5-Chloro (%),"[4]; 11.8% cyclohexene, 30 days",0.0%
same,2-Methyl (%) / 5-Chloro (%),"[4]; 16.7% cyclohexene, 0 days",10.2%
same,2-Methyl (%) / 5-Chloro (%),"[4]; 16.7% cyclohexene, 13 days",9.0%
same,2-Methyl (%) / 5-Chloro (%),"[4]; 16.7% cyclohexene, 30 days",0.0%
same,2-Methyl (%) / 5-Chloro (%),"[5]; 0% DHP, 0 days",11.6%
same,2-Methyl (%) / 5-Chloro (%),"[5]; 0% DHP, 12 days",0.4%
same,2-Methyl (%) / 5-Chloro (%),"[5]; 3.5% DHP, 0 days",11.1%
same,2-Methyl (%) / 5-Chloro (%),"[5]; 3.5% DHP, 12 days",0.1%
same,2-Methyl (%) / 5-Chloro (%),"[5]; 6.3% DHP, 0 days",10.8%
same,2-Methyl (%) / 5-Chloro (%),"[5]; 6.3% DHP, 12 days",0.1%
same,2-Methyl (%) / 5-Chloro (%),"[5]; 11.8% DHP, 0 days",10.2%
same,2-Methyl (%) / 5-Chloro (%),"[5]; 11.8% DHP, 12 days",0.6%
same,2-Methyl (%) / 5-Chloro (%),"[5]; 16.7% DHP, 0 days",9.7%
same,2-Methyl (%) / 5-Chloro (%),"[5]; 16.7% DHP, 12 days",0.5%
same,2-Methyl (%) / 5-Chloro (%),"[5]; 21.1% DHP, 0 days",9.2%
same,2-Methyl (%) / 5-Chloro (%),"[5]; 21.1% DHP, 12 days",0.4%
same,loss of 5-chloro-2-methyl-3-isothiazolone,"[6]; 1-tetradecene as stabilizer, by eight weeks at 55° C",complete loss
same,loss of 5-chloro-2-methyl-3-isothiazolone,"[6]; 1 part by weight norbornene, eight weeks at 55° C",No loss
same,5-chloro-2-methyl-3-isothiazolone left,"[6]; control, no norbornene, eight weeks at 55° C",no 5-chloro-2-methyl-3-isothiazolone left
same,5-chloro-2-methyl-3-isothiazolone remaining,[6]; 672 h,86%
same,5-chloro-2-methyl-3-isothiazolone remaining,[6]; 1344 h,100%
C1=CC2CCC1C2 [norbornene],stability realized (in words),[2],Some stability is realized
same,stabilization properties in presence of water (in words),[2],overwhelms the stabilization properties
